Reference: ChEMBL document CHEMBL3046590, “Design and synthesis of some thiazolotriazolyl esters as anti-inflammatory and analgesic agents” (Med Chem Res, 2012)

Experiments:
Mus musculus [1] = assay: Anti-inflammatory activity in Mus musculus BALB/c (mouse) assessed as inhibition of carrageenan-induced paw swelling at 100 mg/kg, po administered 1 hr followed by carrageenan challenge measured at 360 min relative to control; format: functional
Mus musculus [2] = assay: Anti-inflammatory activity in Mus musculus BALB/c (mouse) assessed as carrageenan-induced paw swelling at 200 mg/kg, po administered 1 hr followed by carrageenan challenge measured at 90 min (reference value: 39 +/- 5.6 x 10^-2 mm); format: functional
Mus musculus [3] = assay: Anti-inflammatory activity in Mus musculus BALB/c (mouse) assessed as carrageenan-induced paw swelling at 50 mg/kg, po administered 1 hr followed by carrageenan challenge measured at 90 min (reference value: 39 +/- 5.6 x 10^-2 mm); format: functional
Mus musculus [4] = assay: Anti-inflammatory activity in Mus musculus BALB/c (mouse) assessed as carrageenan-induced paw swelling at 50 mg/kg, po administered 1 hr followed by carrageenan challenge measured at 360 min (reference value: 105 +/- 4.5 x 10^-2 mm); format: functional
Mus musculus [5] = assay: Anti-inflammatory activity in Mus musculus BALB/c (mouse) assessed as inhibition of carrageenan-induced paw swelling at 100 mg/kg, po administered 1 hr followed by carrageenan challenge measured at 270 min relative to control; format: functional
Mus musculus [6] = assay: Anti-inflammatory activity in Mus musculus BALB/c (mouse) assessed as carrageenan-induced paw swelling at 100 mg/kg, po administered 1 hr followed by carrageenan challenge measured at 90 min (reference value: 39 +/- 5.6 x 10^-2 mm); format: functional
Mus musculus [7] = assay: Toxicity in Mus musculus BALB/c (mouse) assessed as mortality at 50 to 200 mg/kg, po after 72 hr; format: organism-based; set-up: dose 50-200 mg/kg, route oral; settings: in vivo
Mus musculus [8] = assay: Anti-inflammatory activity in Mus musculus BALB/c (mouse) assessed as carrageenan-induced paw swelling at 100 mg/kg, po administered 1 hr followed by carrageenan challenge measured at 270 min (reference value: 78 +/- 8.4 x 10^-2 mm); format: functional
Mus musculus [9] = assay: Anti-inflammatory activity in Mus musculus BALB/c (mouse) assessed as carrageenan-induced paw swelling at 100 mg/kg, po administered 1 hr followed by carrageenan challenge measured at 180 min (reference value: 52 +/- 4.6 x 10^-2 mm); format: functional
Mus musculus [10] = assay: Anti-inflammatory activity in Mus musculus BALB/c (mouse) assessed as carrageenan-induced paw swelling at 100 mg/kg, po administered 1 hr followed by carrageenan challenge measured at 360 min (reference value: 105 +/- 4.5 x 10^-2 mm); format: functional
Mus musculus [11] = assay: Anti-inflammatory activity in Mus musculus BALB/c (mouse) assessed as inhibition of carrageenan-induced paw swelling at 100 mg/kg, po administered 1 hr followed by carrageenan challenge measured at 180 min relative to control; format: functional
Mus musculus [12] = assay: Antioxidant activity in Mus musculus BALB/c (mouse) stomach assessed as TBARS level at 100 mg/kg, po (reference value: 80.4 +/- 5.4 nmol/g ); format: functional
Mus musculus [13] = assay: Anti-inflammatory activity in Mus musculus BALB/c (mouse) assessed as carrageenan-induced paw swelling at 50 mg/kg, po administered 1 hr followed by carrageenan challenge measured at 180 min (reference value: 52 +/- 4.6 x 10^-2 mm); format: functional
Mus musculus [14] = assay: Toxicity in Mus musculus BALB/c (mouse) assessed as behavioral changes at 50 to 200 mg/kg, po after 72 hr; format: organism-based; set-up: dose 50-200 mg/kg, route oral; settings: in vivo
Mus musculus [15] = assay: Anti-inflammatory activity in Mus musculus BALB/c (mouse) assessed as carrageenan-induced paw swelling at 200 mg/kg, po administered 1 hr followed by carrageenan challenge measured at 180 min (reference value: 52 +/- 4.6 x 10^-2 mm); format: functional
Mus musculus [16] = assay: Anti-inflammatory activity in Mus musculus BALB/c (mouse) assessed as carrageenan-induced paw swelling at 200 mg/kg, po administered 1 hr followed by carrageenan challenge measured at 360 min (reference value: 105 +/- 4.5 x 10^-2 mm); format: functional
Mus musculus [17] = assay: Anti-inflammatory activity in Mus musculus BALB/c (mouse) assessed as carrageenan-induced paw swelling at 200 mg/kg, po administered 1 hr followed by carrageenan challenge measured at 270 min (reference value: 78 +/- 8.4 x 10^-2 mm); format: functional
Mus musculus [18] = assay: Anti-inflammatory activity in Mus musculus BALB/c (mouse) assessed as carrageenan-induced paw swelling at 50 mg/kg, po administered 1 hr followed by carrageenan challenge measured at 270 min (reference value: 78 +/- 8.4 x 10^-2 mm); format: functional
Mus musculus [19] = assay: Anti-inflammatory activity in Mus musculus BALB/c (mouse) assessed as inhibition of carrageenan-induced paw swelling at 50 mg/kg, po administered 1 hr followed by carrageenan challenge measured at 360 min relative to control; format: functional
Mus musculus [20] = assay: Analgesic activity in Mus musculus BALB/c (mouse) assessed as inhibition of acetic acid-induced writhing at 100 mg/kg, po administered 1 hr followed by acetic acid challenge measured for 10 min; format: functional
Mus musculus [21] = assay: Anti-inflammatory activity in Mus musculus BALB/c (mouse) assessed as inhibition of carrageenan-induced paw swelling at 50 mg/kg, po administered 1 hr followed by carrageenan challenge measured at 270 min relative to control; format: functional

Structure (SMILES)	inhibition in vivo at 100 mg/kg (Mus musculus [1])	Activity (Mus musculus [2])	Activity (Mus musculus [3])	Activity (Mus musculus [4])	Activity (Mus musculus [6])	Activity (Mus musculus [7])	Activity (Mus musculus [8])	Activity (Mus musculus [9])	Activity (Mus musculus [10])	inhibition in vivo at 100 mg/kg (Mus musculus [11])	Activity (Mus musculus [12])	Activity (Mus musculus [13])	Activity (Mus musculus [14])	Activity (Mus musculus [15])	Activity (Mus musculus [16])	Activity (Mus musculus [17])	Activity (Mus musculus [18])	inhibition in vivo at 50 mg/kg (Mus musculus [19])	inhibition in vivo at 100 mg/kg (Mus musculus [20])	inhibition in vivo at 50 mg/kg (Mus musculus [21])	also measured
CCOC(=O)Cc1csc2nc(-c3ccccc3)nn12	16.7%	35.2 ×10⁻² mm	76.3 ×10⁻² mm	102 ×10⁻² mm	45 ×10⁻² mm	Non-toxic	53.7 ×10⁻² mm	40 ×10⁻² mm	87.5 ×10⁻² mm	23.1%	174.1 nmol/g	53.5 ×10⁻² mm	Non-toxic	48.1 ×10⁻² mm	105.4 ×10⁻² mm	75 ×10⁻² mm	79.7 ×10⁻² mm	–	–	–	inhibition in vivo at 100 mg/kg (Mus musculus [5]): 31.1%
CCOC(=O)Cc1csc2nc(Cc3cc(OC)c(OC)c(OC)c3)nn12	–	38 ×10⁻² mm	55.1 ×10⁻² mm	87.2 ×10⁻² mm	40.8 ×10⁻² mm	Non-toxic	105 ×10⁻² mm	32.3 ×10⁻² mm	129.5 ×10⁻² mm	37.9%	157.1 nmol/g	46 ×10⁻² mm	Non-toxic	42.5 ×10⁻² mm	93.4 ×10⁻² mm	70.3 ×10⁻² mm	61.3 ×10⁻² mm	16.9%	62.8%	21.4%	–
CCOC(=O)c1sc2nc(-c3ccc(Cl)cc3)nn2c1C	28.2%	35.7 ×10⁻² mm	66.1 ×10⁻² mm	117.8 ×10⁻² mm	45.5 ×10⁻² mm	Non-toxic	69.9 ×10⁻² mm	42.8 ×10⁻² mm	75.4 ×10⁻² mm	17.7%	116.9 nmol/g	70 ×10⁻² mm	Non-toxic	45.7 ×10⁻² mm	98.3 ×10⁻² mm	69.6 ×10⁻² mm	91.1 ×10⁻² mm	–	89.7%	–	–
COc1cc(CC2=NC(=S)N=N2)cc(OC)c1OC	38.1%	45.6 ×10⁻² mm	35.6 ×10⁻² mm	77.3 ×10⁻² mm	36.2 ×10⁻² mm	Non-toxic	60 ×10⁻² mm	42.5 ×10⁻² mm	65 ×10⁻² mm	18.3%	115.1 nmol/g	46 ×10⁻² mm	Non-toxic	49.8 ×10⁻² mm	104.5 ×10⁻² mm	77 ×10⁻² mm	57.8 ×10⁻² mm	26.4%	–	25.9%	inhibition in vivo at 100 mg/kg (Mus musculus [5]): 23.1%
CCOC(=O)Cc1csc2nc(-c3ccc(OC)cc3)nn12	–	43.7 ×10⁻² mm	71.2 ×10⁻² mm	96.1 ×10⁻² mm	47.9 ×10⁻² mm	Non-toxic	90 ×10⁻² mm	38.3 ×10⁻² mm	122.5 ×10⁻² mm	24.4%	128.7 nmol/g	65.4 ×10⁻² mm	Non-toxic	52.2 ×10⁻² mm	110.8 ×10⁻² mm	79 ×10⁻² mm	76.2 ×10⁻² mm	–	24.3%	–	–
Sc1n[nH]c(-c2ccccc2)n1	–	45.8 ×10⁻² mm	39.8 ×10⁻² mm	89.1 ×10⁻² mm	44.3 ×10⁻² mm	Non-toxic	111 ×10⁻² mm	36.9 ×10⁻² mm	126 ×10⁻² mm	27.1%	88.4 nmol/g	34.9 ×10⁻² mm	Non-toxic	51.7 ×10⁻² mm	105.4 ×10⁻² mm	74.3 ×10⁻² mm	61.3 ×10⁻² mm	15.1%	35.9%	21.4%	–
CC(=O)Oc1ccccc1C(=O)O [ASPIRIN]	–	–	–	–	–	Non-toxic	–	–	–	–	121 nmol/g	–	Non-toxic	–	–	–	–	–	50%	–	–
